Measurements published in PubChem BioAssay (NCI).
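Grown in 96-well plates, cells were treated for 48 hours with each compound at five concentrations. Insufficient inhibition: endpoint recorded as highest concentration tested. TGI: concentration producing complete growth inhibition.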

Assays:
Assay in all cases: NCI-60 cell line screen, 48 h
KM12 colon = tested on: KM12 colon
NCI-H23 lung = tested on: NCI-H23 lung
RXF 393 renal = tested on: RXF 393 renal
SW-620 colon = tested on: SW-620 colon
TK-10 renal = tested on: TK-10 renal
NCI/ADR-RES ovarian = tested on: NCI/ADR-RES ovarian
MDA-N = tested on: MDA-N
COLO 205 colon = tested on: COLO 205 colon
HCT-15 colon = tested on: HCT-15 colon
HOP-62 NSCLC = tested on: HOP-62 NSCLC
OVCAR-3 ovarian = tested on: OVCAR-3 ovarian
SNB-19 CNS = tested on: SNB-19 CNS
SF-539 CNS = tested on: SF-539 CNS
EKVX NSCLC = tested on: EKVX NSCLC
MDA-MB-231 breast = tested on: MDA-MB-231 breast
T-47D breast = tested on: T-47D breast
HS 578T breast = tested on: HS 578T breast
OVCAR-4 ovarian = tested on: OVCAR-4 ovarian
CAKI-1 renal = tested on: CAKI-1 renal
ACHN renal = tested on: ACHN renal

Row | SMILES | TGI (KM12 colon) [µM] | TGI (NCI-H23 lung) [µM] | TGI (RXF 393 renal) [µM] | TGI (SW-620 colon) [µM] | TGI (TK-10 renal) [µM] | TGI (NCI/ADR-RES ovarian) [µM] | TGI (MDA-N) [µM] | TGI (COLO 205 colon) [µM] | TGI (HCT-15 colon) [µM] | TGI (HOP-62 NSCLC) [µM] | TGI (OVCAR-3 ovarian) [µM] | TGI (SNB-19 CNS) [µM] | TGI (SF-539 CNS) [µM] | TGI (EKVX NSCLC) [µM] | TGI (MDA-MB-231 breast) [µM] | TGI (T-47D breast) [µM] | TGI (HS 578T breast) [µM] | TGI (OVCAR-4 ovarian) [µM] | TGI (CAKI-1 renal) [µM] | TGI (ACHN renal) [µM]
1 | CC(=O)N1CC(=O)N2C(=O)/C(=C/c3ccc(Cl)cc3)N=C12 | > 100 | > 100 | > 100 | > 100 | > 100 | > 100 | > 100 | > 100 | > 100 | > 100 | > 100 | > 100 | > 100 | > 100 | > 100 | > 100 | > 100 | > 100 | > 100 | > 100
2 | Clc1ccc(-c2ccc(-c3nn4c(CNc5ccccc5)nnc4s3)o2)c(Cl)c1 | > 100 | > 100 | 86.2 | > 100 | > 100 | > 100 | > 100 | > 100 | > 100 | > 100 | > 100 | > 100 | 76.4 | > 100 | > 100 | > 100 | > 100 | > 100 | > 100 | > 100
3 | CC[C@]12C=CCN3CC[C@@]4(c5cc(Br)c(OC)cc5N(C)[C@H]4[C@@](O)(C(=O)N[C@@H](Cc4ccc(O)cc4)C(=O)OC)[C@@H]1O)[C@@H]32 | 38.5 | > 100 | 38.4 | > 100 | 79.5 | 62.3 | 49.1 | 33.1 | 76.3 | > 100 | 89.7 | > 100 | 36.6 | > 100 | 30.6 | > 100 | 54.2 | 40 | 77.9 | > 100
4 | Cc1ccc(C)c2c1CC(Cc1ccccc1C(=O)O)C2=O (stereo not given) | > 100 | > 100 | > 100 | > 100 | > 100 | > 100 | > 100 | > 100 | > 100 | > 100 | > 100 | > 100 | > 100 | > 100 | > 100 | > 100 | > 100 | > 100 | > 100 | > 100
5 | CN(C)/C=N/NC(=O)/C(C#N)=C/N(C)C | > 100 | > 100 | > 100 | > 100 | > 100 | > 100 | > 100 | > 100 | > 100 | > 100 | > 100 | > 100 | > 100 | > 100 | > 100 | > 100 | > 100 | > 100 | > 100 | > 100
6 | [O-][n+]1onc2c1/C(=N/O)CCC2 | > 100 | > 100 | > 100 | > 100 | > 100 | > 100 | > 100 | > 100 | > 100 | > 100 | > 100 | > 100 | > 100 | > 100 | > 100 | > 100 | > 100 | > 100 | > 100 | > 100
7 | COc1ccc2c(ccc3c(COC(=O)NC(C)C)c(COC(=O)NC(C)C)n(C)c32)c1 | 25.4 | 16 | 22.2 | 32.8 | 47.8 | 22.9 | 24.7 | 22.6 | 28.9 | 20.9 | 26.8 | > 100 | 20.9 | 44.8 | 34.2 | 82.6 | 38.2 | 28 | 8.56 | 7.13
8 | CCOC(=O)C1=CC(C)(C(=O)OCC)Nc2c(nc(OC)[nH]c2=O)N1 (stereo not given) | > 10 | > 10 | > 10 | > 10 | > 10 | > 10 | > 10 | > 10 | > 10 | > 10 | > 10 | > 10 | > 10 | > 10 | > 10 | > 10 | > 10 | > 10 | > 10 | > 10
9 | Cc1nc2c(o1)C(=O)c1ccccc1C2=Nc1ccc(N2CCOCC2)cc1 | 66.8 | 7.62 | 2.97 | 26.5 | 99.1 | > 29.6 | 3.5 | 55.5 | 15.8 | 22.3 | 5.12 | 36.9 | 6 | 17.4 | 8.84 | 19 | 12.5 | 12.4 | 42.7 | 18.9
10 | O=C(Nc1ccc(Cl)c(Cl)c1)N1N=C2c3ccccc3CCC2C1c1ccc(Cl)cc1 (stereo not given) | > 100 | > 100 | > 100 | > 100 | > 100 | > 100 | > 100 | > 100 | > 100 | > 100 | > 100 | > 100 | > 100 | > 100 | > 100 | > 100 | > 100 | > 100 | > 100 | > 100
11 | COC(=O)C1C2CC3C1C3C2C(=O)OC (stereo not given) | > 100 | > 100 | > 100 | > 100 | > 100 | > 100 | > 100 | > 100 | > 100 | > 100 | > 100 | > 100 | > 100 | > 100 | > 100 | > 100 | > 100 | > 100 | > 100 | > 100
12 | NS(=O)(=O)c1ccc(Nc2c3ccccc3nc3c(C(=O)NCCO)cccc23)cc1 | 0.283 | 0.293 | 0.237 | 0.277 | 0.726 | > 1 | 0.412 | 0.206 | 0.333 | 0.443 | 0.318 | 0.355 | 0.27 | 0.772 | 0.362 | 0.169 | 0.79 | 0.454 | 0.546 | 0.917
